In US4897391A, “Tricyclic anti-allergy, antiinflammatory and anti-hyperproliferative compounds” (Schering Corporation, priority 1988, dated 1990):
Structures can show the parent of a compound that is named as a salt. Where two headings read alike, the source gives them in different places.

Key:
[1] = tested on: Peptidoleukotriene Release in Guinea Pig Lung; experiment: Peptidoleukotriene Release Inhibition in Lung Assay; format: cell-based; conditions: Cavia porcellus; final concentration of 50 μm (so in the source); ovalbumin challenge, sensitized guinea pig lung
Description: The anti-allergy method of this invention is identified by tests that measure inhibition of leukotriene release in sensitized guinea pigs by compounds of the invention. This procedure is as follows.
First, kill sensitized guinea pigs by a blow to the head, remove the lungs and clean them of visible connective tissue, trachea and large blood vessels. Slice the lungs from individual animals into fragments approximately 1 mm in thickness using a McIlwain tissue chopper and wash them with oxygenated Tyrode's buffer. Transfer weighed aliquots (approximately 400 mg wet weight) of lung into vials containing 2 ml of fresh Tyrode's solution (containing 10 mM cysteine) and incubate in the presence or absence of test compound for 12 minutes at 37° C., challenge the tissues with 20 μg ovalbumin/ml (final concentration) and incubate for 15 minutes. To measure leukotriene release, extract an aliquot of supernatant fluid with 4 volumes of 100% ethanol. After removal of the precipitated protein, dry the clear fluid under a stream of N2 gas. Measure the leukotriene content by a radioimmunoassay using [^3 H]LTC4 (leukotriene C4) and antiserum obtained from New England Nuclear. […] Calculate percent inhibition of leukotriene release by comparing for each lung the release in the presence of the test compound to that in the absence of test compound.

5-lipoxygenase = target: T1, 5-lipoxygenase (Mus musculus, UniProt P48999); experiment: 5-Lipoxygenase Assay (MC-9 mast cells, 5-HETE and LTC4 production); format: cell-based, murine; conditions: for inhibition at 3.12 µM: MC9, 3.12 μM dose; for inhibition at 6.25 µM: MC9, 6.25 μM dose; for inhibition at 12.5 µM: MC9, 12.5 μM dose; for inhibition at 25 µM: MC9, 25 μM dose
T1 construct: Preincubate MC-9 cells (0.39 ml at 7.5×10^6 cells/ml) without or with test compound; endogenous in cells; host or cells: MC-9 murine mast cell clone (interleukin-3-dependent)
T1 sequence (P48999 1-674): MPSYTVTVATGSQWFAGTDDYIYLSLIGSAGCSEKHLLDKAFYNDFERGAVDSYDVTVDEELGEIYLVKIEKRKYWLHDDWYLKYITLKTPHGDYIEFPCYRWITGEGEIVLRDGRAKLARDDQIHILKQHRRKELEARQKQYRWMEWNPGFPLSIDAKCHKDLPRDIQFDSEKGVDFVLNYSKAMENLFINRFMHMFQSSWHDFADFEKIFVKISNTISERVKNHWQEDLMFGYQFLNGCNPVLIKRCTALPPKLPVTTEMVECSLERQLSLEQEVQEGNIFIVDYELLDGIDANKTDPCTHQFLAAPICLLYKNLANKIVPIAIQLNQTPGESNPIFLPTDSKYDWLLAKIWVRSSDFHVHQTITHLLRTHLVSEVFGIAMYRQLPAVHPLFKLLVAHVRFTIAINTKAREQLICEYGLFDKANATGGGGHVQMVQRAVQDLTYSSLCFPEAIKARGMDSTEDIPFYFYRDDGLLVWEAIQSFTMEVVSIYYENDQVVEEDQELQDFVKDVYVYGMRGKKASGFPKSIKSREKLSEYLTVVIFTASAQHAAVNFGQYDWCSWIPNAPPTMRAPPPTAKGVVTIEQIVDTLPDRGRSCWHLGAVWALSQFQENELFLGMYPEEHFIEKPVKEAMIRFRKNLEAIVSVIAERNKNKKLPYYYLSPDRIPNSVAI
Experimental: Preincubate MC-9 cells (0.39 ml at 7.5×10^6 cells/ml) without or with test compound dissolved in dimethylsulfoxide (DMSO) vehicle (to a final volume 1 μl) for 4 minutes then incubate for 5 minutes with [^14 C]arachidonic acid (Amersham, 59 Ci/mole) at a 9 μM final concentration, and A23187 (Calbiochem) at a 1 μM final concentration in 10 μl of water:ethanol (9:1). Stop the reaction by addition of methanol (0.4 ml), and remove cellular debris by centrifugation. Run aliquots (250 μl) of the incubations on a Waters two-pump HPLC system fitted with a Waters radial compression column (C18, 10 micron, 8×100 mm, micro-Bondapak) and C18 "Guard Pak". Initially elute the column at 3 ml/min with water:methanol:acetic acid (67:33:0.08) containing 1 mM EDTA adjusted to pH 6.0 with ammonium hydroxide (Pump A). At 4 minutes, establish a linear gradient to reach 100% methanol (Pump B) at 9 minutes. Between 13 and 14 minutes, exchange for the initial eluting solvent and by 19 minutes the column will be reequilibrated for the next sample. Analyze the effluent by a continuous flow radioactivity monitor (model ROMONA-D) interfaced with a Hewlett Packard Lab Automation System for quantitation of radioactive products. […] Doses in table 2 are 50 μM unless otherwise noted.

[2] = MC9, 50 μM dose, MC-9 cells, read-out: % Inhibition 5-HETE
[3] = MC9, 50 μM dose, MC-9 cells, read-out: % Inhibition LTC4
[4] = MC-9 cells, read-out: % Inhibition 5-HETE
[5] = MC-9 cells, read-out: % Inhibition LTC4

| inhibition at 50 µM (5-lipoxygenase; [2]) | Compound | inhibition at 50 µM [1] | also measured |
| --- | --- | --- | --- |
| 74% | CC(=O)Oc1ccc2c(=O)n3c(c(C)c2c1OC(C)=O)CCCC3 [9,10-bis(acetyloxy)-1,2,3,4-tetrahydro-11-methyl-6H-benzo[b]quinolizin-6-one] | 84% | – |
| 99% | Cc1c2n(c(=O)c3cc(OC(=O)CN)cc(OC(=O)CN)c13)CCCC2 [8,10-bis[(aminoacetyl)oxy]-11-methyl-1,2,3,4-tetrahydro-6H-benzo[b]quinolizine-6-one dihydrochloride] | – | – |
| – | Cc1c2n(c(=O)c3cc(O)cc(O)c13)CCCC2 [1,2,3,4-tetrahydro-8,10-dihydroxy-11-methyl-6H-benzo[b]quinolizin-6-one, disodium salt] | 71% | inhibition at 50 µM (5-lipoxygenase; MC9, read-out: % Inhibition 5-HETE): 88% |
| 19% | CC(=O)Oc1cc(OC(C)=O)c2c(-c3ccccc3)c[nH]c(=O)c2c1 [5,7-bis(acetyloxy)-4-phenyl-1(2H)-isoquinolinone] | – | inhibition at 50 µM (5-lipoxygenase; [3]): 16% |
| 56% | CC(=O)Oc1cc(OC(C)=O)c2c3c([nH]c(=O)c2c1)CCCC3 [8,10-bis(acetyloxy)-1,3,4,5,6-tetrahydro-6(2H)-phenanthridinone] | 36% | inhibition at 50 µM (5-lipoxygenase; [3]): 41% |
| 19% | CC(=O)Oc1ccc2c(C)c3n(c(=O)c2c1)CCCC3 [8-acetyloxy-1,2,3,4-tetrahydro-11-methyl-6H-benzo[b]quinolizin-6-one] | 9% | – |
| 2% | CC(=O)Oc1cc(OC(C)=O)c2c(OC(C)=O)c3n(c(=O)c2c1)CCCC3 [8,10,11-tris(acetyloxy)-1,2,3,4-tetrahydro-6H-benzo[b]quinolizin-6-one] | 39% | – |
| 56% | CC(=O)Oc1cc(OC(C)=O)c2c3c(n(C)c(=O)c2c1)CCC3 | – | – |
| 23% | O=C1c2cc(O)cc(O)c2C(O)(c2ccccc2)C2CCCCN12 (stereo not shown) [1,2,3,4,11,11a-hexahydro-8,10,11-trihydroxy-11-phenyl-6H-benzo[b]quinolizin-6-one] | – | inhibition at 50 µM (5-lipoxygenase; [3]): 32% |
| 31% | O=c1[nH]c2c(c3c(O)cc(O)cc13)CCC2 | – | – |
| 31% | O=c1[nH]c2c(c3c(O)cc(O)cc13)CCCC2 [1,3,4,5-tetrahydro-8,10-dihydroxy-phenanthridin-6(2H)-one] | – | – |
| 98% | CC(=O)Oc1ccc2c(C)c3n(c(=O)c2c1OC(C)=O)CCCC3 [D, 7,8-bis(acetyloxy)-1,2,3,4-tetrahydro-11-methyl-6H-benzo[b]quinolizin-6-one] | 62% | – |
| 18% | O=c1c2cc(O)cc(O)c2c(O)c2n1CCCC2 [1,2,3,4-tetrahydro-8,10,11-trihydroxy-6H-benzo[b]quinolizin-6-one] | 28% | – |
| 5% | CC(=O)Oc1cc(OC(C)=O)c2c(-c3ccccc3)c(C)n(C)c(=O)c2c1 [5,7-bis(acetyloxy)-2,3-dimethyl-4-phenyl-1(2H)-isoquinolinone] | 45% | – |
| 43% | CC(=O)Oc1cc(OC(C)=O)c2c(C)c[nH]c(=O)c2c1 [5,7-bis(acetyloxy)-4-methyl-1(2H)-isoquinolinone] | – | inhibition at 50 µM (5-lipoxygenase; [3]): 40% |
| 45% | Cc1c2n(c(=O)c3cc(OC(=O)C(C)(C)C)cc(OC(=O)C(C)(C)C)c13)CCCC2 [8,10-bis(2,2-dimethyl-1-oxopropoxy)-11-methyl-1,3,4,6-tetrahydro-6H-benzo[b]quinolizin-6-one] | 5% | – |
| 18% | CC(=O)Oc1cc(OC(C)=O)c2c(-c3ccccc3)c3n(c(=O)c2c1)CCC3 [7,9-bis(acetyloxy)-2,3-dihydro-10-phenyl-6H-pyrrolo[1,2-b]isoquinolin-5(1H)-one] | 76% | inhibition at 50 µM (5-lipoxygenase; [3]): 10% |
| – | CC(=O)Oc1cc(OC(C)=O)c2c(C)c3n(c(=O)c2c1)CCCC3 [A, 8,10-bis(acetyloxy)-1,2,3,4-tetrahydro-11-methyl-6H-benzo[b]quinolizin-6-one] | 69% | inhibition at 3.12 µM (5-lipoxygenase; [4]): 50%; inhibition at 3.12 µM (5-lipoxygenase; [5]): 57%; inhibition at 6.25 µM (5-lipoxygenase; [4]): 65%; inhibition at 6.25 µM (5-lipoxygenase; [5]): 59%; inhibition at 12.5 µM (5-lipoxygenase; [4]): 62%; inhibition at 12.5 µM (5-lipoxygenase; [5]): 54%; inhibition at 25 µM (5-lipoxygenase; [4]): 93%; inhibition at 25 µM (5-lipoxygenase; [5]): 90% |
| 5% | CC(=O)Oc1ccc2c(c1)C(=O)N1CCCCC1C2(C)O (stereo not shown) [8-acetyloxy-1,2,3,4,11,11a-hexahydro-11-hydroxy-11-methyl-6H-benzo[b]quinolizin-6-one] | – | – |
| 31% | CC(=O)Oc1cc(OC(C)=O)c2c(-c3ccccc3)c(C)[nH]c(=O)c2c1 [5,7-bis(acetyloxy)-3-methyl-4-phenyl-1(2H)-isoquinolinone] | 12% | inhibition at 50 µM (5-lipoxygenase; [3]): 27% |
| 21% | CC(=O)Oc1cc(OC(C)=O)c2c(-c3ccccc3)c3n(c(=O)c2c1)CCCC3 [8,10-bis(acetyloxy)-1,2,3,4,-tetrahydro-11-phenyl-6H-benzo[b]quinolizin-6-one] | 66% | – |

| Compound | inhibition at 50 µM (5-lipoxygenase; [2]) | inhibition at 50 µM [1] | also measured |
| --- | --- | --- | --- |
| Cc1c2n(c(=O)c3cc(O)cc(O)c13)CCCC2 [C, 1,2,3,4-tetrahydro-8,10-dihydroxy-11-methyl-6H-benzo[b]quinolizin-6-one] | 100% | 61% | – |
